Experimental data from BindingDB's records for patent US20250353864 (Blossomhill Therapeutics, 2025).

Columns and labels:
[1] = biological target: Epidermal growth factor receptor (Homo sapiens, UniProt P00533); assay: Biochemical Assays for Inhibition of Wild-Type and Mutant EGFRs
Method: (§1) Briefly, specific kinase/substrate pairs along with required cofactors were prepared in reaction buffer; 20 mM Hepes pH 7.5, 10 mM […], 1 mM EGTA, 0.02% Brij35, 0.02 mg/ml BSA, 0.1 mM Na3VO4, 2 mM DTT, 1% DMSO. Compounds were delivered into the reaction, followed […] later by addition of a mixture of ATP (Sigma, St. Louis MO) and 33P ATP (Perkin Elmer, Waltham MA) to a final concentration of 10 μM. Reactions were carried out at room temperature for 120 min, followed by spotting of the reactions onto P81 ion exchange filter paper (Whatman Inc., Piscataway, NJ). Unbound phosphate was removed by extensive washing of filters in 0.75% phosphoric acid. […] IC50 values and curve fits were obtained using Prism (GraphPad Software).

[2] = biological target: Epidermal growth factor receptor [L858R,T790M,C797S] (Homo sapiens, UniProt P00533, C797S/L858R/T790M); assay: as above
Chain of Epidermal growth factor receptor [L858R,T790M,C797S] (P00533 25-1210 T790M/C797S/L858R limits assumed): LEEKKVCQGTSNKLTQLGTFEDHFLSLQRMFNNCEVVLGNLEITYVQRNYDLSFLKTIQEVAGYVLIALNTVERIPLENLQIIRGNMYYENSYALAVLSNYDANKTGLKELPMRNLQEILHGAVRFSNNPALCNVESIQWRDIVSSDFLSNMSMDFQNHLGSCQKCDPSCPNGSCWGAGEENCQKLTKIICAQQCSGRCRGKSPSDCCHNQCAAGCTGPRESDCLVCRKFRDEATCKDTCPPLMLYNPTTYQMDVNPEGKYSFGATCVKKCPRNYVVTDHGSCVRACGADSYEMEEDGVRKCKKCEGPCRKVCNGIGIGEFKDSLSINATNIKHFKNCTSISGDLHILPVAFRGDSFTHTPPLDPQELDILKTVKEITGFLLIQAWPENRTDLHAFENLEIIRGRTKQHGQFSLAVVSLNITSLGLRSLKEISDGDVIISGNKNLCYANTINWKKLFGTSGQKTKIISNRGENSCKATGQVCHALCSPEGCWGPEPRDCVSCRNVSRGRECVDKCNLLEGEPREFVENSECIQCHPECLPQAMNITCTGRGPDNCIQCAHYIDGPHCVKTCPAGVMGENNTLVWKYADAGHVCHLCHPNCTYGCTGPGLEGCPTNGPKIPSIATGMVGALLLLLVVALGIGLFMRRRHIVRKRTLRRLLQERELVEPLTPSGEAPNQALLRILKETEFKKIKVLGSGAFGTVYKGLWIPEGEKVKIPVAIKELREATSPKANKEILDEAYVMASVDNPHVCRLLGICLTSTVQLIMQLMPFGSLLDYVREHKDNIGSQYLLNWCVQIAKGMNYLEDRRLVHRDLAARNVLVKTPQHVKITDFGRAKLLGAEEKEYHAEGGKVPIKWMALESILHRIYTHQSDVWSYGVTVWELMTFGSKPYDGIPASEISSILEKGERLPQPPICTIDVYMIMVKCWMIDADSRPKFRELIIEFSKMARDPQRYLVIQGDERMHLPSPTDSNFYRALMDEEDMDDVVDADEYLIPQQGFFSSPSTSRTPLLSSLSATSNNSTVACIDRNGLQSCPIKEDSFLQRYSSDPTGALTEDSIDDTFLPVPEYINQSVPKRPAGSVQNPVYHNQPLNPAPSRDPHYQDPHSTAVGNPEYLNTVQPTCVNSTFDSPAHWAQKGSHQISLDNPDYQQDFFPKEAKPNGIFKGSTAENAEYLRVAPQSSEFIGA
Method: as §1

[3] = biological target: Epidermal growth factor receptor [L858R] (Homo sapiens, UniProt P00533, L858R); assay: as above
Chain of Epidermal growth factor receptor [L858R] (P00533 25-1210 L858R limits assumed): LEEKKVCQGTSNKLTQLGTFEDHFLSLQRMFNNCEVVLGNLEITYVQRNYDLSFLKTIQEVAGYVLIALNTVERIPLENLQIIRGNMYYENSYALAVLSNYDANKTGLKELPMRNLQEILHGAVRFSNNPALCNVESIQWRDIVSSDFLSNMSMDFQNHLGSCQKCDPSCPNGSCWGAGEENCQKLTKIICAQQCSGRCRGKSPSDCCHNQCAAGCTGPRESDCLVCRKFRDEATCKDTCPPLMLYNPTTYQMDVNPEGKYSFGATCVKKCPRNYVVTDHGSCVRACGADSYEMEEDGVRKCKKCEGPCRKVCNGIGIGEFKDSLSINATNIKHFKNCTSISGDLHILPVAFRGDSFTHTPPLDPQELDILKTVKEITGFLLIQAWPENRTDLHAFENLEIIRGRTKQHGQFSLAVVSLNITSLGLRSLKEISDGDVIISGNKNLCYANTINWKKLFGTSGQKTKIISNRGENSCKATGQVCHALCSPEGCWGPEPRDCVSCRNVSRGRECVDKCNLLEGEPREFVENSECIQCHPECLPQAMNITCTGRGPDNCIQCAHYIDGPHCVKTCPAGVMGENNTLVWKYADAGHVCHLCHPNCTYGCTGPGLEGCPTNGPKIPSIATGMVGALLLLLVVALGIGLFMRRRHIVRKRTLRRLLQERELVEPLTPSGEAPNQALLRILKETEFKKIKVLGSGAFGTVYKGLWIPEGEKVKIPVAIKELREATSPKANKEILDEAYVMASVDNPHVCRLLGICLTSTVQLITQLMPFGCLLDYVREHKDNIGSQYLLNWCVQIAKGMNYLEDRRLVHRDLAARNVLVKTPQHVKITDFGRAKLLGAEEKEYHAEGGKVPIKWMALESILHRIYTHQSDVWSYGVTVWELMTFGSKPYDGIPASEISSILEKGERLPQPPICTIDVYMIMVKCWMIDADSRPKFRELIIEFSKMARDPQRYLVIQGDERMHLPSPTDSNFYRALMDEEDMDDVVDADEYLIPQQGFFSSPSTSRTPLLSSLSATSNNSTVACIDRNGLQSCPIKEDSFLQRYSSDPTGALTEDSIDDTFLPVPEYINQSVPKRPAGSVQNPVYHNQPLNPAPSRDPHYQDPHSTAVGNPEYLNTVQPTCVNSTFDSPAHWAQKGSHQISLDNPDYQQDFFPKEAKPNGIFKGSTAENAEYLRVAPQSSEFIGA
Method: as §1

[4] = biological target: Epidermal growth factor receptor [T790M,L858R] (Homo sapiens, UniProt P00533, L858R/T790M); assay: as above
Chain of Epidermal growth factor receptor [T790M,L858R] (P00533 25-1210 T790M/L858R limits assumed): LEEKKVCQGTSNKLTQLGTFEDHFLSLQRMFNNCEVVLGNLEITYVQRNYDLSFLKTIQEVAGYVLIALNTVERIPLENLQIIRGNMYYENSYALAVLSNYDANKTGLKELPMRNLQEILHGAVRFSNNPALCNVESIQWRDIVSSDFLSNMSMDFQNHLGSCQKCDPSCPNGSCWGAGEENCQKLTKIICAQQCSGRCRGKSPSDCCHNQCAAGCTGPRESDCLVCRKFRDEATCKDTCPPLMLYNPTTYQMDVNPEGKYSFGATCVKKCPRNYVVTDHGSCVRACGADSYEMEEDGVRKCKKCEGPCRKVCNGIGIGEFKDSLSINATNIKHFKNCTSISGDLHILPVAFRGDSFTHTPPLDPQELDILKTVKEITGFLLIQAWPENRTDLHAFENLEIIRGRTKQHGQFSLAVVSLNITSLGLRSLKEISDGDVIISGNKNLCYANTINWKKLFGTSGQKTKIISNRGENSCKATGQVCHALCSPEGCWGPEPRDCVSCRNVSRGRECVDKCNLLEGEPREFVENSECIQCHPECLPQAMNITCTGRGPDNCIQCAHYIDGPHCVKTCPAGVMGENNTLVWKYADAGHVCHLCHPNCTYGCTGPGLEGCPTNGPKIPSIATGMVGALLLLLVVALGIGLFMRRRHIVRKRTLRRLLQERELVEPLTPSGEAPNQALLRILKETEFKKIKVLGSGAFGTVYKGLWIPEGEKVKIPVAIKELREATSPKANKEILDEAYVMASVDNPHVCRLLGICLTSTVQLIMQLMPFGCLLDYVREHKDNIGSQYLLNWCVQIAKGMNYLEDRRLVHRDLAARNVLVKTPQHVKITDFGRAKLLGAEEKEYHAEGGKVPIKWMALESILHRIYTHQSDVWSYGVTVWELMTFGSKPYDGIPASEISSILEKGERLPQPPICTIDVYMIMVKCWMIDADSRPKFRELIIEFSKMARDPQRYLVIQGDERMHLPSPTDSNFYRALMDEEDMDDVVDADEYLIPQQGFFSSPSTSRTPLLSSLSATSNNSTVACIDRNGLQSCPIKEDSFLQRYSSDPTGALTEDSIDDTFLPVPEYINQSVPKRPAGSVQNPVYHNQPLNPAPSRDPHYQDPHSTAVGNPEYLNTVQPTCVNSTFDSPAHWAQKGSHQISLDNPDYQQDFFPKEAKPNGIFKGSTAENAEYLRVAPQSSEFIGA
Method: as §1

[5] = biological target: Dual specificity protein kinase CLK1 (Homo sapiens, UniProt P49759); assay: Inhibition of CLK, CLK2, CLK3 and CLK4 Kinase Activity Evaluated at Nanosyn
Method: (§2) Table 3: Kinase protein and substrate were pre-diluted in the HEPES assay buffer (100 mM HEPES, pH 7.5, 0.01% Triton X-100, 0.1% BSA, 5 mM MgCl2, […] DTT, […], […] Beta-Glycerophosphate) dispensed into 384 well plate (5 μL per well). Control samples (0%-inhibition in the absence of inhibitor, DMSO only) and 100%-inhibition (in the absence of enzyme) were assembled in replicates of six and were used to calculate %-inhibition in the presence of compounds. Test compounds were added to the protein samples by acoustic dispensing (Labcyte Echo550). Concentration of DMSO was equalized to 1% in all samples. Reactions were initiated by addition of ATP by acoustic dispensing (Labcyte Echo550) and incubated according to assay specific incubation time. After incubation. 5 μL of Promega ADP-Glo reagent was added and incubated for 40 minutes. After 40 minutes, 10 uL of Promega kinase detection reagent was added. After 10 min of incubation with Kinase detection reagent, the luminescence was read on microplate reader (Biotek Synergy).

[6] = biological target: Dual specificity protein kinase CLK2 (Homo sapiens, UniProt P49760); assay: as above
Method: as §2

[7] = biological target: Dual specificity protein kinase CLK3 (Homo sapiens, UniProt P49761); assay: as above
Method: as §2

[8] = biological target: Dual specificity protein kinase CLK4 (Homo sapiens, UniProt Q9HAZ1); assay: as above
Method: as §2

Chain of Epidermal growth factor receptor (P00533 whole entry): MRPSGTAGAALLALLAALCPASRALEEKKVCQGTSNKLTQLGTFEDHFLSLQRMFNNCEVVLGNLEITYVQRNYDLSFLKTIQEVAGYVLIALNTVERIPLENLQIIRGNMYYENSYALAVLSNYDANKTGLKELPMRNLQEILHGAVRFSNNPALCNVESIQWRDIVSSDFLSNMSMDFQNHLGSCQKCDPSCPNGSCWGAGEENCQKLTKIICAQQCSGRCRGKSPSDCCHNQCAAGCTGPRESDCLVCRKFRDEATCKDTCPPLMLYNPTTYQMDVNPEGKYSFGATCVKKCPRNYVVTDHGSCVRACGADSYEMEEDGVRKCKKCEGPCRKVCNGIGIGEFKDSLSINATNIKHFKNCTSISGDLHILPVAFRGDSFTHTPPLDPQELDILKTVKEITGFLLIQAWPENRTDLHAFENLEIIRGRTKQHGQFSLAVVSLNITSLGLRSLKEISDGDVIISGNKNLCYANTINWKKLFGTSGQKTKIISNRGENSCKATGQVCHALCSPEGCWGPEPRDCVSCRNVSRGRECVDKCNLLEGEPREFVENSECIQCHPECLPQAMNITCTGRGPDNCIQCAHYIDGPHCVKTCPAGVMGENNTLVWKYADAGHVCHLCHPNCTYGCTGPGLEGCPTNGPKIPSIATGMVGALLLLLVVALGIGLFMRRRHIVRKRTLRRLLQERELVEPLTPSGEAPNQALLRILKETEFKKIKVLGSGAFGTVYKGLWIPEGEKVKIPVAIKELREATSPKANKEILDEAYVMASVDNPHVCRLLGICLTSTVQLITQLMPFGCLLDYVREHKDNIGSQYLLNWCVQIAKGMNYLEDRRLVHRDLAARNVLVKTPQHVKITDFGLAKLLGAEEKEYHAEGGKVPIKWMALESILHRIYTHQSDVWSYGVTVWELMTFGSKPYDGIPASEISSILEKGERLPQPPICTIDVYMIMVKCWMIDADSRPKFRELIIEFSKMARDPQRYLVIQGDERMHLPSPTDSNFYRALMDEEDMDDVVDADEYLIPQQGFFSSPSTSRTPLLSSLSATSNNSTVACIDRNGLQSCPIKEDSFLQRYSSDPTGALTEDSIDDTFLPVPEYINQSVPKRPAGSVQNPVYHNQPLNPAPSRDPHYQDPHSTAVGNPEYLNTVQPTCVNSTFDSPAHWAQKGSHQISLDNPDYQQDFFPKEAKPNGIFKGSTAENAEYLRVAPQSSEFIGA

Row | SMILES | IC50 [1] [nM] | IC50 [2] [nM] | IC50 [3] [nM] | IC50 [4] [nM] | IC50 [5] [nM] | IC50 [6] [nM] | IC50 [7] [nM] | IC50 [8] [nM]
1 | Cc1c2c(nn1CCN1CCCC1)OCCOC(C)c1c(cnn1C)-c1ccc3[nH]nc(c3c1)/C=C/2 (stereo not given) [US20250353864, Example 84] | 1080 | 28.2 | 285 | 30.8 |  |  |  | 
2 | CCOc1nn(CCO)c2c1/C=C/c1n[nH]c3ccc(cc13)-c1cnn(C)c1OC1CCCN(C2)C1C (stereo not given) [US20250353864, Example 242] | 381 | 4.93 | 124 | 9.27 |  |  |  | 
3 | Cc1c2c(nn1CCN1CCCC1)CN(C)C[C@H](C)Oc1c(cnn1C)-c1ccc3[nH]nc(c3c1)/C=C/2 [US20250353864, Example 89] | 64 | 0.45 | 4.66 | 0.06 |  |  |  | 
4 | Cc1c2c(nn1[C@H]1CCN(C)C[C@@H]1O)OCCCOc1c(cnn1C)-c1ccc3[nH]nc(c3c1)/C=C/2 (racemic) [US20250353864, Example 83] | 61.5 | 5.29 | 19 | 1.48 |  |  |  | 
5 | Cc1nn(C)c2c1/C=C/c1n[nH]c3ccc(cc13)-c1c(C)nn(C)c1OCCN(C)C2 [US20250353864, Example 47] |  | 170 | 822 | 79.3 | 9.92 | 48.3 | 1000 | 2.7

The remaining compounds from weak to strong by IC50 [2], led by results:

Row | IC50 [1] [nM] | IC50 [2] [nM] | IC50 [3] [nM] | IC50 [4] [nM] | IC50 [5] [nM] | IC50 [6] [nM] | IC50 [7] [nM] | IC50 [8] [nM] | SMILES
6 | 973 | 42.2 | 181 |  |  |  |  |  | CCc1nn(C)c2c1/C=C/c1n[nH]c3ccc(cc13)-c1cnn(C)c1OCCCO2 [US20250353864, Example 10]
7 | 1070 | 35.3 | 222 |  |  |  |  |  | Cc1ccc2c(n1)/C=C/c1n[nH]c3ccc(cc13)-c1cnn(C)c1O[C@@H](C)CCO2 [US20250353864, Example 39]
8 | 413 | 28.5 | 132 | 10.8 |  |  |  |  | Cc1nn(C)c2c1/C=C/c1n[nH]c3ccc(cc13)-c1cnn(C)c1CN(C)C[C@H](C)O2 (single isomer, unassigned) [US20250353864, Example 97]
9 | 0.4 | 0.28 |  |  |  |  |  |  | CCOc1nn(CCO)c2c1/C=C/c1n[nH]c3ccc(cc13)-c1cnn(C)c1O[C@H](C)[C@H]1CCCN1C2 (single isomer, unassigned) [US20250353864, Example 241]
